According to US20220047569A1, “METHOD AND COMPOUND FOR USE, IN TREATING AND/OR PREVENTING NETOSIS” (Jubilant EpiPad LLC, priority 2020, published 2022):
Structures can show the parent of a compound that is named as a salt.

Tested on: Histone H3 Citrullination in Neutrophils
Assay: Citrullination ELISA (Citrullinated Histone H3) in calcium ionophore stimulated neutrophils
Assay type: cell-based
Conditions: Neutrophil; human neutrophils, 25 μM calcium ionophore, CitH3 ELISA
Protocol: Neutrophils were isolated according to the EasySep Direct Human Neutrophil Isolation Kit. In short, 50 mL of blood sample was drawn in a vacutainer containing K2EDTA from a healthy donor. To the whole blood, the isolation cocktail of 50 μL/mL was added. Then, in the next step 50 μL/mL of RapidSpheres™ was added to the sample. The sample was mixed evenly with the pipette and incubated for 10 minutes at room temperature. After incubation, PBS containing 1 mM EDTA was added at the ratio of 1:1 to the blood. Then the sample tube was incubated for 10 minutes. The enriched cell suspension was transferred into a new tube and RapidSpheres™ were added at 50 μL/mL to this suspension, mixed and incubated for 10 minutes at room temperature. At this step, the enriched cell suspension was carefully collected as a clear fraction into a fresh tube. Then, previous tube was replaced with the fresh tube containing enriched cell suspension. After the final separation, the clear solution of enriched cell suspension was carefully transferred to fresh tube which was ready to use for the experiment. These cells were then subjected to wash twice with plain RPMI 1640 media without Fetal Bovine Serum (FBS) and centrifuged at 1500 rpm for 5 minutes at room temperature. Cell counts were performed on each sample by Invitrogen cell counter. After the cell count, cell density was adjusted according to the experiment and re-suspended in complete RPMI media containing RPMI1640, 2% BSA and 1 mM CaCl2.
Freshly isolated neutrophils from human donor were seeded at a density of 0.5×10^6 cells in 400 μL cell suspension/well in a 24-well plate and cells were pre-incubated with the compound for 30 minutes by adding 50 μL of the 10× concentration to achieve the final 1× concentration of compound (10 μM, 1 μM and 0.1 μM). 1% DMSO was added in control wells. Then, the cells were stimulated in the presence and absence of calcium ionophore by adding 50 μL/well to achieve the final concentration of 25 μM. Upon incubation for 30 minutes with calcium ionophore, S7 nuclease was added to the wells and incubated for 10 minutes to disrupt NET DNA. Following incubation, 10 μL of 1 mM EDTA was added to inactivate nuclease. Cells were scrapped gently and transferred to the tubes, followed by centrifugation at 1500 rpm for 5 minutes. After centrifugation, supernatant was discarded, and 200 μL of lysis buffer containing PBS and 1× Protease inhibitor was added to the tubes. The obtained lysis was then subjected to mechanical shearing using Geno grinder by spin the plate at 2500 rpm for 10 minutes, followed by collection of supernatant and stored at −20° C. or immediately used for ELISA.
ELISA was performed as per Citrullinated Histone H3 ELISA Kit. All the buffer components from the kit were dissolved according to the manufactures protocol. ELISA Buffer Concentrate (10×) (Item No. 400060) and Wash Buffer Concentrate (400×) (Item No. 400060) along with polysorbate 20 (2000×) (Item No. 400035) was diluted to 1× with milliQ water. The standard for use in the ELISA was prepared as follows: • Obtain eight clean test tubes and label them, #1 through #8. Aliquot 4.9 mL of ELISA Buffer into tube #1. • Aliquot 500 μL of ELISA Buffer into the tubes #2-8. […] This tube is considered as blank, the lowest point on the standard curve.
100 μL of standards or diluted sample was added to the appropriate wells on the 96-well plate. Plates were covered with 96-well cover sheet and incubated for two hours at room temperature on an orbital shaker. The samples and standard were removed from the wells and washed four times with Wash Buffer. After the last wash, Anti-Histone H3 HRP Conjugate (Item No. 501441) (10×) stock solution was diluted in 1×ELISA buffer and 100 μL of the HRP Conjugate working solution was added to each well of the plate and incubated for one hour at room temperature on an orbital shaker. […]

Structure (SMILES)	IC50
Cc1c(-c2cc3ccccc3n2Cc2ncccc2F)nc2cc(C(=O)N3CCC[C@@H](N)C3)ccn12 [Compound 62, (R)-(3-aminopiperidin-1-yl)(2-(1-((3-fluoropyridin-2-yl)methyl)-1H-indol-2-yl)-3-methylimidazo[1,2-a]pyridin-7-yl)methanone]	100 to 1000 nM
CCn1c(-c2nc3cc(C(=O)N4CCC[C@@H](N)C4)ccn3c2C)cc2ccc(OC)cc21 [Compound 67, (R)-(3-aminopiperidin-1-yl)(2-(1-ethyl-6-methoxy-1H-indol-2-yl)-3-methylimidazo[1,2-a]pyridin-7-yl)methanone]	> 1000 nM
Cc1c(-c2cc3ccc(F)cc3n2Cc2ccncc2)nc2cc(C(=O)N3CCC[C@@H](N)C3)ccn12 [Compound 68, (R)-(3-aminopiperidin-1-yl)(2-(6-fluoro-1-(pyridin-4-ylmethyl)-1H-indol-2-yl)-3-methylimidazo[1,2-a]pyridin-7-yl)methanone]	< 100 nM
Cc1c(-c2cc3ccc(F)cc3n2Cc2cccnc2)nc2cc(C(=O)N3CCC[C@@H](N)C3)ccn12 [Compound 69, (R)-(3-aminopiperidin-1-yl)(2-(6-fluoro-1-(pyridin-3-ylmethyl)-1H-indol-2-yl)-3-methylimidazo[1,2-a]pyridin-7-yl)methanone]	100 to 1000 nM
COc1cccc(Cn2c(-c3nc4cc(C(=O)N5CCC[C@@H](N)C5)ccn4c3C)cc3ccc(F)cc32)c1 [Compound 70, (R)-(3-aminopiperidin-1-yl)(2-(6-fluoro-1-(3-methoxybenzyl)-1H-indol-2-yl)-3-methylimidazo[1,2-a]pyridin-7-yl)methanone]	< 100 nM
COc1ccc(Cn2c(-c3nc4cc(C(=O)N5CCC[C@@H](N)C5)ccn4c3C)cc3ccc(F)cc32)cc1 [Compound 71, (R)-(3-aminopiperidin-1-yl)(2-(6-fluoro-1-(4-methoxybenzyl)-1H-indol-2-yl)-3-methylimidazo[1,2-a]pyridin-7-yl)methanone]	> 1000 nM
CCn1c(-c2nc3cc(C(=O)N4CCC[C@@H](N)C4)ccn3c2C)cc2ccc(F)cc21 [Compound 72, (R)-(3-aminopiperidin-1-yl)(2-(1-ethyl-6-fluoro-1H-indol-2-yl)-3-methylimidazo[1,2-a]pyridin-7-yl)methanone]	100 to 1000 nM
Cc1c(-c2cc3cc(F)ccc3n2Cc2ccncc2)nc2cc(C(=O)N3CCC[C@@H](N)C3)ccn12 [Compound 74, (R)-(3-aminopiperidin-1-yl)(2-(5-fluoro-1-(pyridin-4-ylmethyl)-1H-indol-2-yl)-3-methylimidazo[1,2-a]pyridin-7-yl)methanone]	> 1000 nM
COc1ccc(Cn2c(-c3nc4cc(C(=O)N5CCC[C@@H](N)C5)ccn4c3C)cc3cc(F)ccc32)cc1 [Compound 75, (R)-(3-aminopiperidin-1-yl)(2-(5-fluoro-1-(4-methoxybenzyl)-1H-indol-2-yl)-3-methylimidazo[1,2-a]pyridin-7-yl)methanone]	100 to 1000 nM
Cc1c(-c2cc3cc(F)ccc3n2Cc2ccc(F)cc2)nc2cc(C(=O)N3CCC[C@@H](N)C3)ccn12 [Compound 76, (R)-(3-aminopiperidin-1-yl)(2-(5-fluoro-1-(4-fluorobenzyl)-1H-indol-2-yl)-3-methylimidazo[1,2-a]pyridin-7-yl)methanone]	> 1000 nM
Cc1c(-c2cc3ccccc3n2CC(F)F)nc2cc(C(=O)N3CCC[C@@H](N)C3)ccn12 [Compound 78, (R)-(3-aminopiperidin-1-yl)(2-(1-(2,2-difluoroethyl)-1H-indol-2-yl)-3-methylimidazo[1,2-a]pyridin-7-yl)methanone trifluoroacetic acid salt]	> 1000 nM
Cc1c(-c2cc3ccccc3n2Cc2ccc(F)cn2)nc2cc(C(=O)N3CCC[C@@H](N)C3)ccn12 [Compound 79, (R)-(3-aminopiperidin-1-yl)(2-(1-((5-fluoropyridin-2-yl)methyl)-1H-indol-2-yl)-3-methylimidazo[1,2-a]pyridin-7-yl)methanone]	> 1000 nM
COc1ccc2cc(-c3nc4cc(C(=O)N5CCC[C@@H](N)C5)ccn4c3C)n(Cc3ccc(F)cc3)c2c1 [Compound 80, (R)-(3-aminopiperidin-1-yl)(2-(1-(4-fluorobenzyl)-6-methoxy-1H-indol-2-yl)-3-methylimidazo[1,2-a]pyridin-7-yl)methanone]	> 1000 nM
Cc1c(-c2cc3ccccc3n2Cc2ccc(CO)cc2)nc2cc(C(=O)N3CCC[C@@H](N)C3)ccn12 [Compound 81, (R)-(3-aminopiperidin-1-yl)(2-(1-(4-(hydroxymethyl)benzyl)-1H-indol-2-yl)-3-methylimidazo[1,2-a]pyridin-7-yl)methanone]	> 1000 nM
COc1ccc(Cn2c(-c3nc4cc(C(=O)N5CCC[C@@H](N)C5)cc5c4n3CCO5)cc3ccccc32)cc1 [Compound 105, (R)-(3-aminopiperidin-1-yl)(2-(1-(4-methoxybenzyl)-1H-indol-2-yl)-3,4-dihydro-5-oxa-1,2a-diazaacenaphthylen-7-yl)methanone]	100 to 1000 nM

The remaining lines, values ahead:

IC50	Structure (SMILES)
100 to 1000 nM	N[C@@H]1CCCN(C(=O)c2cc3c4c(c2)nc(-c2cc5ccccc5n2CC2CC2)n4CCO3)C1 [Compound 87, (R)-(3-aminopiperidin-1-yl)(2-(1-(cyclopropylmethyl)-1H-indol-2-yl)-3,4-dihydro-5-oxa-1,2a-diazaacenaphthylen-7-yl)methanone]
< 100 nM	N[C@@H]1CCCN(C(=O)c2cc3c4c(c2)nc(-c2cc5cc(F)ccc5n2CC2CC2)n4CCO3)C1 [Compound 95, (R)-(3-aminopiperidin-1-yl)(2-(1-(cyclopropylmethyl)-5-fluoro-1H-indol-2-yl)-3,4-dihydro-5-oxa-1,2a-diazaacenaphthylen-7-yl)methanone]
100 to 1000 nM	N[C@@H]1CCCN(C(=O)c2cc3c4c(c2)nc(-c2cc5ccccc5n2Cc2ccccn2)n4CCO3)C1 [Compound 97, (R)-(3-aminopiperidin-1-yl)(2-(1-(pyridin-2-ylmethyl)-1H-indol-2-yl)-3,4-dihydro-5-oxa-1,2a-diazaacenaphthylen-7-yl)methanone]
100 to 1000 nM	N[C@@H]1CCCN(C(=O)c2cc3c4c(c2)nc(-c2cc5ccccc5n2Cc2ccc(Cl)cc2)n4CCO3)C1 [Compound 99, (R)-(3-aminopiperidin-1-yl)(2-(1-(4-chlorobenzyl)-1H-indol-2-yl)-3,4-dihydro-5-oxa-1,2a-diazaacenaphthylen-7-yl)methanone]
< 100 nM	N[C@@H]1CCCN(C(=O)c2cc3c4c(c2)nc(-c2cc5ccccc5n2Cc2ccccc2F)n4CCO3)C1 [Compound 100, (R)-(3-aminopiperidin-1-yl)(2-(1-(2-fluorobenzyl)-1H-indol-2-yl)-3,4-dihydro-5-oxa-1,2a-diazaacenaphthylen-7-yl)methanone]
< 100 nM	N[C@@H]1CCCN(C(=O)c2cc3c4c(c2)nc(-c2cc5ccccc5n2Cc2cccnc2)n4CCO3)C1 [Compound 102, (R)-(3-aminopiperidin-1-yl)(2-(1-(pyridin-3-ylmethyl)-1H-indol-2-yl)-3,4-dihydro-5-oxa-1,2a-diazaacenaphthylen-7-yl)methanone]
< 100 nM	COc1cc2cc(-c3nc4cc(C(=O)N5CCC[C@@H](N)C5)cc5c4n3CCO5)n(CC3CC3)c2cc1OC [Compound 103, (R)-(3-aminopiperidin-1-yl)(2-(1-(cyclopropylmethyl)-5,6-dimethoxy-1H-indol-2-yl)-3,4-dihydro-5-oxa-1,2a-diazaacenaphthylen-7-yl)methanone]
100 to 1000 nM	N[C@@H]1CCCN(C(=O)c2cc3c4c(c2)nc(-c2cc5ccccc5n2Cc2ccccc2)n4CCO3)C1 [Compound 104, (R)-(3-aminopiperidin-1-yl)(2-(1-benzyl-1H-indol-2-yl)-3,4-dihydro-5-oxa-1,2a-diazaacenaphthylen-7-yl)methanone]
